Experimental data published in patent US20080221086A1, “Novel Inhibitors of Glutaminyl Cyclase” (PROBIODRUG AG, priority 2006, published 2008).

molecular target: hQC (Homo sapiens, UniProt Q16769); assay: Fluorometric assay of glutaminyl cyclase (QC) inhibition, H-Gln-βNA or H-Gln-AMC substrate; format: biochemical; conditions: read-out: IC50
Procedure, shortened: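 Ki values were obtained by fitting progress curves to a competitive-inhibition equation, and the rapid screen used 4 mM inhibitor with substrate at 1 KM. Both readouts coupled pyroglutamyl aminopeptidase at pH 8.0 and 30° C: H-Gln-βNA at 0.2 mM (ex/em 320/410 nm) or H-Gln-AMC (380/460 nm).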

hQC, sequence (Q16769 29-361): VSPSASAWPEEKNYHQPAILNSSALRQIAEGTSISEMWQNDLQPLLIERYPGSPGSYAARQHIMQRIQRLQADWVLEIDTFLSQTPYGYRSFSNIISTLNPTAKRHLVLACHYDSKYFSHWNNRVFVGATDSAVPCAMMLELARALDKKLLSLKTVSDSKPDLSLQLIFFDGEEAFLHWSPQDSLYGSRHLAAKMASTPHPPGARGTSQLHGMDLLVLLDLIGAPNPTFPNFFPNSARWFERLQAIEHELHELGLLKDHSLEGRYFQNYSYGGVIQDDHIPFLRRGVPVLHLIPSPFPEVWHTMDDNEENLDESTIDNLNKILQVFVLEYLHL

| SMILES | IC50 [µM] |
| --- | --- |
| O=C1N/C(=N\Cc2ccccc2)C(c2ccccc2Cl)N1CCCn1ccnc1 (stereo not shown) [Compound 97, 4-Benzylimino-5-(2-chloro-phenyl)-1-(3-imidazol-1-yl-propyl)-imidazolidin-2-one] | 4 |
| O=C1N/C(=N\Cc2ccccc2)C(c2ccccc2F)N1CCCn1ccnc1 (stereo not shown) [Compound 98, 4-Benzylimino-5-(2-fluoro-phenyl)-1-(3-imidazol-1-yl-propyl)-imidazolidin-2-one] | 5.8 |
| O=C1N/C(=N/Cc2ccccc2)C(c2ccc(O)cc2)N1CCCn1ccnc1 (stereo not shown) [Compound 99, 4-Benzylimino-5-(4-hydroxy-phenyl)-1-(3-imidazol-1-yl-propyl)-imidazolidin-2-one] | 6.7 |
| O=C1N/C(=N\c2ccc(Oc3ccccc3)cc2)C(C2CCC=CO2)N1CCCn1ccnc1 (stereo not shown) [Compound 100, 5-(3,4-Dihydro-2H-pyran-2-yl)-1-(3-imidazol-1-yl-propyl)-4-4-phenoxy-phenylimino-imidazolidin-2-one] | 4.9 |
| O=C1N/C(=N\c2ccc(Oc3ccccc3)cc2)C(c2ccc(Cl)c(F)c2)N1CCCn1ccnc1 (stereo not shown) [Compound 101, 5-(4-Chloro-3-fluoro-phenyl)-1-(3-imidazol-1-yl-propyl)-4-4-phenoxy-phenylimino-imidazolidin-2-one] | 7.6 |
| O=C1NC(=Nc2ccc(Oc3ccccc3)cc2)C(CO)N1CCCn1ccnc1 (stereo not shown) [Compound 102, 5-Hydroxymethyl-1-(3-imidazol-1-yl-propyl)-4-4-phenoxy-phenylimino-imidazolidin-2-one] | 8.5 |
| CCCCC1C(=Nc2ccc(Oc3ccccc3)cc2)NC(=O)N1CCCn1ccnc1 (stereo not shown) [Compound 103, 5-Butyl-1-(3-imidazol-1-yl-propyl)-4-4-phenoxy-phenylimino-imidazolidin-2-one] | 9.4 |
| CCCC1/C(=N\CCC(c2ccccc2)c2ccccc2)NC(=O)N1CCCn1ccnc1 (stereo not shown) [Compound 104, 4-3,3-Diphenyl-propylimino-1-(3-imidazol-1-yl-propyl)-5-propyl-imidazolidin-2-one] | 9.4 |
| O=C1N/C(=N\CCC(c2ccccc2)c2ccccc2)C(c2ccccc2)N1CCCn1ccnc1 (stereo not shown) [Compound 105, 4-3,3-Diphenyl-propylimino-1-(3-imidazol-1-yl-propyl)-5-phenyl-imidazolidin-2-one] | 3.1 |
| O=C1N/C(=N\CCC(c2ccccc2)c2ccccc2)C(C2CCC=CO2)N1CCCn1ccnc1 (stereo not shown) [Compound 106, 5-(3,4-Dihydro-2H-pyran-2-yl)-4-3,3-diphenyl-propylimino-1-(3-imidazol-1-yl-propyl)-imidazolidin-2-one] | 7.6 |
| O=C1N/C(=N\CCC(c2ccccc2)c2ccccc2)C(c2cccc(F)c2F)N1CCCn1ccnc1 (stereo not shown) [Compound 107] | 6.7 |
| O=C1N/C(=N\CCC(c2ccccc2)c2ccccc2)C(c2cc(F)cc(F)c2)N1CCCn1ccnc1 (stereo not shown) [Compound 108, 5-(3,5-Dihydro-phenyl)-4-3,3-diphenyl-propylimino-1-(3-imidazol-1-yl-propyl)-imidazolidin-2-one] | 6.7 |
| O=C1NC(=NCCC(c2ccccc2)c2ccccc2)C(c2ccc(Cl)c(F)c2)N1CCCn1ccnc1 (stereo not shown) [Compound 109, 5-(4-Chloro-3-fluoro-phenyl)-4-3,3-diphenyl-propylimino-1-(3-imidazol-1-yl-propyl)-imidazolidin-2-one] | 7.6 |
| O=C1N/C(=N\CCC(c2ccccc2)c2ccccc2)C(c2ccccc2Cl)N1CCCn1ccnc1 (stereo not shown) [Compound 110, 5-(2-Chloro-phenyl)-4-3,3-diphenyl-propylimino-1-(3-imidazol-1-yl-propyl)-imidazolidin-2-one] | 6.7 |
| O=C1N/C(=N/CCC(c2ccccc2)c2ccccc2)C(CO)N1CCCn1ccnc1 (stereo not shown) [Compound 111, 4-3,3-Diphenyl-propylimino-5-hydroxymethyl-1-(3-imidazol-1-yl-propyl)-imidazolidin-2-one] | 9.4 |
| O=C1N/C(=N\CCC(c2ccccc2)c2ccccc2)C(c2ccccc2F)N1CCCn1ccnc1 (stereo not shown) [Compound 112, 4-3,3-Diphenyl-propylimino-5-(2-fluoro-phenyl)-1-(3-imidazol-1-yl-propyl)-imidazolidin-2-one] | 6.7 |
| O=C1N/C(=N\CCC(c2ccccc2)c2ccccc2)C(c2cccc(F)c2)N1CCCn1ccnc1 (stereo not shown) [Compound 113, 4-3,3-Diphenyl-propylimino-5-(3-fluoro-phenyl)-1-(3-imidazol-1-yl-propyl)-imidazolidin-2-one] | 7.6 |
| O=C1NC(=NCC2CCCO2)C(c2cccc(F)c2F)N1CCCn1ccnc1 (stereo not shown) [Compound 114, 5-(2,3-Difluoro-phenyl)-1-(3-imidazol-1-yl-propyl)-4-tetrahydro-furan-2-ylmethylimino-imidazolidin-2-one] | 8.5 |
| O=C1NC(=NCC2CCCO2)C(c2cc(F)cc(F)c2)N1CCCn1ccnc1 (stereo not shown) [Compound 115, 5-(3,5-Difluoro-phenyl)-1-(3-imidazol-1-yl-propyl)-4-tetrahydro-furan-2-ylmethylimino-imidazolidin-2-one] | 7.6 |
| C/N=C1/NC(=O)N(c2ccc3[nH]cnc3c2)C1c1ccc2[nH]ccc2c1 (stereo not shown) [Compound 116, 1-(1H-Benzoimidazol-5-yl)-5-(1H-indol-5-yl)-4-methylimino-imidazolidin-2-one] | 0.004 |

Further lines, results first:

| IC50 [µM] | SMILES |
| --- | --- |
| 1.3 | O=C1N/C(=N/C2CC2)C(c2ccc(Cl)c(F)c2)N1c1ccc2[nH]cnc2c1 (stereo not shown) [Compound 117, 1-(1H-Benzoimidazol-5-yl)-5-(4-chloro-3-fluoro-phenyl)-4-cyclopropylimino-imidazolidin-2-one] |
| 5.8 | Cc1ccc(C2/C(=N/C(C)(C)CC(C)(C)C)NC(=S)N2c2ccc3nc[nH]c3c2)cc1 (stereo not shown) [Compound 118, 1-(3H-Benzoimidazol-5-yl)-4-1,1,3,3-tetramethyl-butylimino-5-p-tolyl-imidazolidine-2-thione] |
| 6.7 | O=C(C/N=C1/NC(=O)N(c2ccc3[nH]cnc3c2)C1c1cc(Br)cs1)N1CCCCC1 (stereo not shown) [Compound 119, 1-(1H-Benzoimidazol-5-yl)-5-(4-bromo-thiophen-2-yl)-4-2-oxo-2-piperidin-1-yl-ethylimino-imidazolidin-2-one] |
| 1.3 | Cc1ccc2c(C3/C(=N\CCCc4ccccc4)NC(=O)N3c3ccc4[nH]cnc4c3)c[nH]c2c1 (stereo not shown) [Compound 120, 1-(1H-Benzoimidazol-5-yl)-5-(6-methyl-1H-indol-3-yl)-4-3-phenyl-propylimino-imidazolidin-2-one] |
| 0.4 | O=C1N/C(=N\C2CCc3ccccc32)C(c2ccnc3ccccc23)N1c1ccc2[nH]cnc2c1 (stereo not shown) [Compound 121, 1-(1H-Benzoimidazol-5-yl)-4-indan-1-ylimino-5-quinolin-4-yl-imidazolidin-2-one] |
| 0.4 | O=C1N/C(=N\C2CCCCC2O)C(c2ccc3[nH]ccc3c2)N1c1ccc2[nH]cnc2c1 (stereo not shown) [Compound 122, 1-(1H-Benzoimidazol-5-yl)-4-2-hydroxy-cyclohexylimino-5-(1H-indol-5-yl)-imidazolidin-2-one] |
| 0.4 | C/N=C1/NC(=O)N(c2ccc3[nH]cnc3c2)C1c1ccc2c(c1)OCCO2 (stereo not shown) [Compound 123, 1-(1H-Benzoimidazol-5-yl)-5-(2,3-dihydro-benzo1,4dioxin-6-yl)-4-methylimino-imidazolidin-2-one] |
| 3.1 | O=c1c(C2/C(=N/Cc3ccccc3)NC(=S)N2c2ccc3[nH]cnc3c2)coc2ccccc12 (stereo not shown) [Compound 124, 3-{3-(1H-Benzoimidazol-5-yl)-5-benzylimino-2-thioxo-imidazolidin-4-yl}-chromen-4-one] |
| 2.2 | O=C(C/N=C1\NC(=S)N(c2ccc3[nH]cnc3c2)C1c1cc(Br)cc(Br)c1)N1CCSCC1 (stereo not shown) [Compound 125, 2-(1-(1H-benzo[d]imidazol-5-yl)-5-(3,5-dibromophenyl)-2-thioxoimidazolidin-4-ylideneamino)-1-thiomorpholinoethan-one] |
| 4.9 | N#Cc1cccc(/N=C2\NC(=S)N(c3ccc4[nH]cnc4c3)C2c2ccc3c(c2)OCCO3)c1 (stereo not shown) [Compound 126, 3-(1-(1H-benzo[d]imidazol-5-yl)-5-(2,3-dihydrobenzo[b][1,4]dioxin-6-yl)-2-thioxoimidazolidin-4-ylideneamino)benzo-nitrile] |
| 4 | Cc1ccc2occ(C3/C(=N/C4CCCCC4O)NC(=O)N3c3ccc4[nH]cnc4c3)c(=O)c2c1 (stereo not shown) [Compound 127, 1-(1H-Benzoimidazol-5-yl)-4-2-hydroxy-cyclohexylimino-5-(6-methyl-4-oxo-4H-chromen-3-yl)-imidazolidin-2-one] |
| 3.1 | O=C1N/C(=N/Cn2nnc3ccccc32)C(c2ccc(Cl)cc2)N1c1ccc2[nH]cnc2c1 (stereo not shown) [Compound 128, 1-(1H-Benzoimidazol-5-yl)-4-benzotriazol-1-ylmethylimino-5-(4-chloro-phenyl)-imidazolidin-2-one] |
| 0.004 | O=C1N/C(=N\C2CCCC2)C(c2ccc(N3CCCC3)cc2)N1c1ccc2[nH]cnc2c1 (stereo not shown) [Compound 129, 1-(1H-Benzoimidazol-5-yl)-4-cyclopentylimino-5-(4-pyrrolidin-1-yl-phenyl)-imidazolidin-2-one] |
| 7.6 | CC(CC1/C(=N/C2CCCCCC2)NC(=O)N1c1ccc2nc[nH]c2c1)CC(C)(C)C (stereo not shown) [Compound 130, 1-(3H-Benzoimidazol-5-yl)-4-cycloheptylimino-5-(2,4,4-trimethyl-pentyl)-imidazolidin-2-one] |
| 5.8 | S=C1N/C(=N/CCCc2ccccc2)C(c2cc(Br)cc(Br)c2)N1c1ccc2[nH]cnc2c1 (stereo not shown) [Compound 131, 1-(1H-Benzoimidazol-5-yl)-5-(3,5-dibromo-phenyl)-4-3-phenyl-propylimno-imidazolidine-2-thione] |
| 4.9 | S=C1N/C(=N/Cc2ccc3[nH]ccc3c2)C(c2cc(Br)cc(Br)c2)N1c1ccc2nc[nH]c2c1 (stereo not shown) [Compound 132, 1-(3H-Benzoimidazol-5-yl)-5-(3,5-dibromo-phenyl)-4-1H-indol-5-ylmethylimino-imidazolidine-2-thione] |
| 5.8 | S=C1N/C(=N/Cc2ccccc2)C(c2ccc(Br)cc2)N1c1ccc2[nH]cnc2c1 (stereo not shown) [Compound 133, 1-(1H-Benzoimidazol-5-yl)-4-benzylimino-5-(4-bromo-phenyl)-imidazolidine-2-thione] |
